From article PMC8308784, “Novel Purine Chemotypes with Activity against Plasmodium falciparum and Trypanosoma cruzi” (Pharmaceuticals, 2021) come the findings set out here.

The subject of series [1] is P. falciparum 3D7. The series is described as follows: P. falciparum primary screening at three fixed concentrations. The series is classed as cell-based. To be noted: average of at least three experiments; for activity at 1 µM / activity at 10 µM / activity at 100 µM: Plasmodium falciparum, read-out: Primary screening, parasite growth relative to the negative control; for activity at 1 µM: 3D7, compound at 1 µM; for activity at 10 µM: 3D7, compound at 10 µM; for activity at 100 µM: 3D7, compound at 100 µM.

For series [2], the system named is P. falciparum 3D7. Nature of the series: P. falciparum dose-response growth inhibition assay (FACS, SYTO 11). Conditions: P. falciparum 3D7, 48 h, mean (SD). The class given is cell-based. How it is done: Apicomplexan parasite cultures were maintained at 3% hematocrit under an atmosphere of 37 °C in 93% N2, 5% CO2, and 2% O2, following standard methods. Synchronized cultures were obtained via 5% sorbitol lysis.
P. falciparum growth was primarily analyzed under 3 different concentrations ([…]) of the 81 compounds. Conditions were tested in triplicate for every concentration, and the test was repeated when the standard deviation was above 10% for any concentration. Z-values varied between 0.83 and 0.98 in the different plates analyzed. Selected compounds (12.3% potential hit rate) were further analyzed via standard growth inhibition assays, carried out as previously described in [54]. Briefly, parasitemia was adjusted to 1–1.3%, with >90% rings after sorbitol synchronization. Two hundred microliters of parasite culture were plated in 96-well microplates and incubated for 48 h at 37 °C in the presence of decreasing concentrations of the tested compounds, in triplicate. Parasitemia was determined by fluorescence-assisted cell sorting (FACS). Non-infected RBCs and samples containing parasitized RBCs (including controls with DMSO as carrier solvent) were diluted in PBS to a final concentration of ~1–10 × 10^6 cells/mL. The cell suspension was stained with SYTO 11 (0.5 mM stock in DMSO, Thermo Fisher Scientific, Waltham, MA, USA), to a final concentration of 0.5 μM. Samples were analyzed in a Becton Dickinson FACSCalibur. Sample excitation was carried out using a 488-nm, air-cooled argon-ion laser at a power of 15 mW, using forward and side scatter to gate the RBC population, and SYTO 11 green fluorescence (530 nm, FITC filter) was collected in a logarithmic scale. The single-cell population was selected on a forward–side scattergram, and the green fluorescence from this population was analyzed. Parasitemia was expressed as the number of parasitized cells per 100 erythrocytes.
(§1) Absorbance values derived from the anti-T. cruzi assays and fluorescence values from the anti-P. falciparum and cell toxicity assays were normalized to the controls. In the primary screening at three fixed doses, the compounds’ inhibitory activity was expressed as a percentage of the negative control (100% parasitic growth). In dose–response assays, the compounds’ IC50 and TC50 values were determined with GraphPad Prism 7 software (version 7.00, 2016), using a non-linear regression analysis model defined by the following equation: Y=100 ÷(1+10^((LogIC50−X)×HillSlope))

Series [3] concerns HepG2 cells. Nature of the series: HepG2 cell toxicity assay (alamarBlue). The class given is cell-based, human. To be noted: 2 days; minimum value of the 95% CI, except BNZ (mean (SD)). Here is the method:
Human erythrocytes were purified from B+ Rh+ blood samples and maintained at 4 °C in incomplete RPMI medium. Vero (green monkey kidney epithelial cells), LLC-MK2 (Rhesus monkey kidney epithelial cells), and HepG2 (human liver epithelial cells) cultures were cultivated in DMEM supplemented with 1% penicillin–streptomycin (PS) and 10% heat-inactivated fetal bovine serum (FBS) at 37 °C, 5% CO2, and >95% humidity, as described in [31]. HepG2 cells were also supplemented with 10% non-essential amino acids. Vero and MK2 cells were passaged twice per week at 1:12 ratios, while HepG2 cells were passaged at a 1:8 ratio.
Vero and HepG2 cells were detached, centrifuged, and resuspended in DMEM without phenol red. Cell viability was checked upon cell counting with trypan blue staining. Then, Vero and HepG2 cells were diluted at a concentration of 5 × 10^5 and 3.2 × 10^5 cells per mL, respectively, before adding 100 µL per well to the 96-well plate. Each run contained its own negative (untreated cells) and positive (medium alone) controls. Plates were incubated at 37 °C for 4 days in the case of Vero, or 2 in the case of HepG2 cells. Assay readout was made by adding 50 µL per well of a PBS solution containing 10% alamarBlue reagent (Thermo Fisher Scientific); then, plates were incubated for another 6 h at 37 °C, before recording the fluorescence intensity with a Tecan Infinite M Nano+ reader (excitation: 530 nm, emission: 590 nm).
as §1

SMILES strings stand for the structures.

What is called IC50 is the concentration that gives 50% inhibition. High values mean weaker potency in that assay, low ones greater potency in that assay.

Consider `CC(C)(C)n1c(-c2ccccc2)nc2c(OCc3ccccc3)ncnc21` [Compound 6D], for which, in series [1], the activity at 1 µM came out at 117%, the activity at 10 µM turned out to be 114% and the activity at 100 µM came out at 13.2%. This molecule also had an IC50 in series [2] (Plasmodium falciparum, 3D7, 48 h) of 18.9 µM. The “HepG2 Cells TC50” value in series [3] is >200 µM.

As to `c1ccc(CCn2c(-c3ccccc3)nc3c(OCc4ccccc4)ncnc32)cc1` [Compound 6g], the “Primary screening, parasite growth relative to the negative control” value in series [1] (compound at 1 µM) came to 100.79%; in series [1] (compound at 10 µM) it was 94.94%; in series [1] (compound at 100 µM), 24.45%. The molecule further displayed an IC50 in series [2] of 19.1 µM. The “HepG2 Cells TC50” value in series [3] was >300 µM.

`COC(=O)c1ccccc1-n1cc(COc2ncnc3c2nc(-c2ccccc2)n3N(C)C)nn1` [Compound 34]: in series [1], the activity at 1 µM came out at 95.6%, the activity at 10 µM was 85% and the activity at 100 µM was 43.2%.
